For assay [1], the system named is LNCaP WT cells. As to the kind of experiment: xCELLigence real-time proliferation of WT LNCaP cells. The note with it: for proliferation of WT LNCaPs: PDE4 activator, 1 and 10 μM. It is filed as cell-based. The method, then:
(§1) xCELLigence Real-Time Cell Analysis (RTCA)
(§2) Real-time cell growth was analysed using the xCELLigence RTCA system (Agilent), which measures real-time cell adhesion across gold microelectrode biosensors on 96 well electronic plates (E-plates) within a 37 °C incubator with 5% CO2. Cellular adhesion influences electrical impedance which is converted into the cell index (CI) via RTCA software. Initial background measurements were recorded with 100 μL RPMI 1640 medium, followed by addition of 100 μL LNCaP cell suspension (10,000 cells/wells) for measurement of CI over time. Approximately 24 h after seeding, cells were treated with specified concentrations of drugs. Negative controls containing either 0.1% DMSO or untreated cells were also included. CI was transformed to normalised CI via the RTCA software to timepoint of treatment.

Assay [2] relates to P1-PDE4D7+/+ LNCaP cells. Put plainly: xCELLigence real-time proliferation of P1 LNCaP cells with PDE4D7 re-expression. It is filed as cell-based.
Assay [3] deals with LNCaP cells. The note with it: Feiersinger et al., 2018; cited from earlier work.
The subject of assay [4] is PARP cleavage in LNCaP P1. Put plainly: PARP/cleaved PARP western blot in PDE4D7-knockdown P1 LNCaP. It is filed as cell-based. To be noted: N=3. Here is the method: (§3) FIG. 12: Ratio of PARP and cleaved PARP (PARPc) by western blot analysis in LNCaP WT and LNCaP PDE4D7 knockdown cell line P1 upon incubation with 0.1% DMSO (control), 10 μM Olaparib, and 10 nM docetaxel including quantitation of western blot bands normalised to DMSO.
(§4) Cells were lysed in 3T3 lysis buffer (50 mM NaCl, 50 mM NaF, 30 mM sodium pyrophosphate, 25 mM HEPES, 2.5 mM EDTA, 10% (v/v) glycerol, 1% (v/v) Triton X-100; pH 7.5) supplemented with cOmplete™ EDTA-free protease inhibitor cocktail (Sigma-Aldrich). Lysed cells were rotated end-over-end for 30 minutes at 4 °C, then centrifuged for 10 minutes at 13,000 RPM at […]. Supernatants were collected and protein concentration determined via Bradford assay. Equal concentrations of protein samples were separated via SDS-polyacrylamide gel electrophoresis (SDS-PAGE) and transferred onto nitrocellulose membranes for western blot. Membranes were blocked in 5% (w/v) milk powder in TBS-T for 1 h prior to primary and secondary antibody incubations. […]
On the technique in general: A western blot detects proteins with antibodies after separation by electrophoresis.

Assay [5] deals with PDE4D7-knockdown LNCaP P1 cells. Put plainly: xCELLigence real-time proliferation of PDE4D7-knockdown P1 LNCaP cells. The note with it: for resistance to olaparib, PDE4D7-reduced cells: olaparib 10 and 30 μM. It is filed as cell-based.
Excerpt: Stable shRNA-mediated lentiviral transduced LNCaP cell lines were generated by AMSBIO (Table 1). Briefly, shRNA-PDE4D7 was cloned into a lentivector and delivered into LNCaP clone FGC cells (ATCC) via lentivirus (MOI=10). Cells were maintained in puromycin-supplemented medium prior to selection of stably transduced cells. A stable shRNA-PDE4D7 LNCaP cell line was then re-transduced with lentivirus delivering PDE4D7 to generate a re-introduced cell line. Scrambled-shRNA was used as a control. All cells were cultured in RPMI 1640 medium (Gibco D), supplemented with 10% (v/v) foetal bovine serum, 1% (v/v) L-Glutamine and 1% (v/v) penicillin/streptomycin, and stored within a 37 °C incubator with 5% CO2.
as §1, §2

Assay [6] relates to PARP cleavage in LNCaP WT. As to the kind of experiment: PARP/cleaved PARP western blot in WT LNCaP. The format is cell-based. To be noted: N=3. Here is the method:
as §3, §4

In assay [7] the test system is advanced PCa. To be noted: in combination with docetaxel; cited from earlier work.
For assay [8], the system named is cAMP at membrane of WT LNCaPs. As to the kind of experiment: cAMP FRET (CUTie) at plasma membrane of WT LNCaP. The format is cell-based. The note with it: rolipram. The method, then: (§5) FIG. 18: Influence of PDE4D7 expression on cAMP dynamics within LNCaPs. Analysis of FRET ratio (YFP/CFP) at cytosol of WT (A) or P1 (C) LNCaPs, or at membrane of WT (B) or P1 (D) LNCaPs upon treatment with rolipram or combined treatment of forskolin+IBMX. (E & F) Real-time growth analysis of WT (G) and P1 (H) cells upon treatment with PDE4 activator MR-L2 (1-10 μM). Slope analysis from 0-48 post-treatment. Mean+/−SEM, N=3, **p<0.01, ***p<0.001.
(§6) Genetically encoded cAMP-fluorescent resonance energy transfer (FRET) probes were used to investigate CAMP dynamics at subcellular regions in WT and P1 LNCaPs. […] CUTie probes targeting the plasma-membrane (AKAP-79) or cytosol (CYTO-pDUAL) were obtained from the Zaccolo lab (REF). […] Given that PDE4D7 is known to be substantially membrane located [FIG. 1C]

Assay [9] relates to cAMP at membrane of P1 LNCaPs. Put plainly: cAMP FRET (CUTie) at plasma membrane of P1 LNCaP. The format is cell-based. To be noted: rolipram. Here is the method:
as §5, §6

The test system of assay [10] is cAMP at cytosol of WT LNCaPs. Put plainly: cAMP FRET (CUTie) in cytosol of WT LNCaP. To be noted: rolipram. The format is cell-based. Here is the method:
as §5, §6

The subject of assay [11] is cAMP at cytosol of P1 LNCaPs. As to the kind of experiment: cAMP FRET (CUTie) in cytosol of P1 LNCaP. The format is cell-based. To be noted: rolipram. The method, then:
as §5, §6

Assay [12] relates to mCRPC. The note with it: Lloyd et al., 2020; cited from earlier work.

SMILES strings stand for the structures. Entries after “also recorded” stand apart in the source; their conditions may differ.

`O=C(c1cc(Cc2n[nH]c(=O)c3ccccc23)ccc1F)N1CCN(C(=O)C2CC2)CC1` [olaparib, Olaparib]: the “LNCaP WT proliferation” value in assay [1] (olaparib 0-30 μM) is recorded as “decreased in a dose-dependent manner”. Further, the “growth rate (slope analysis), WT” value in assay [1] (olaparib 3, 10 and 30 μM, slope 0-30 h) is given as “significant reductions in WT growth”. In addition, the “sensitivity to olaparib after PDE4D7 re-introduction” value is “more sensitive to olaparib treatment; also recorded: re-sensitised” in assay [2] (olaparib 10 μM) and “enhances sensitivity to Olaparib” in [2] (olaparib 10 μM, listed as Olaparib). For the same compound, in assay [2] (olaparib 10 μM, slope 0-48 h), the “growth vs olaparib-treated P1 and DMSO-treated P1-PDE4D7+/+ cells” value is “statistically significant downregulation in growth”. Further, the “effect against LNCaP cells” value in [3] is “effective against LNCaP cells”. For the same compound, in assay [4] (olaparib 10 μM), the “cleaved PARP ratio, P1 LNCaP” value is given as “No increase in cleaved PARP ratio”. In [5] (olaparib 0-30 μM), the “effect on PDE4D7-deficient LNCaP proliferation” value was “minimal”. In addition, the “growth rate (slope analysis), P1” value in assay [5] (olaparib 0.3 and 1 μM, slope 0-30 h) is “unexpected reduction in slope”. In addition, the “resistance to olaparib, PDE4D7-reduced cells” value in [5] is listed as “resistant to olaparib; also recorded: resistance”; in assay [5] (listed as Olaparib), “resistance”. For the same compound, the “resistance to PARP inhibition via olaparib upon PDE4D7 knockdown” value in assay [5] (overall conclusion) is reported as “resistant to PARP inhibition via olaparib; also recorded: confers resistance to PARP-inhibition via olaparib; also recorded: enhances resistance to olaparib”. Also, the “PARP cleavage, WT LNCaP” value in assay [6] (olaparib 10 μM) was “increased PARP cleavage”.

Take `CC(=O)O[C@@]12CO[C@@H]1C[C@H](O)[C@@]1(C)C(=O)[C@H](O)C3=C(C)[C@@H](OC(=O)[C@H](O)[C@@H](NC(=O)OC(C)(C)C)c4ccccc4)C[C@@](O)([C@@H](OC(=O)c4ccccc4)[C@H]21)C3(C)C` [docetaxel, Docetaxel]: in assay [1] (docetaxel 10 μM), the “growth of WT LNCaPs” value is “effective in WT”. Also, the “growth of WT LNCaPs vs DMSO” value in assay [1] (docetaxel, all concentrations (5-25 μM), slope 0-48 h) was “significantly reduced growth”. Besides, the “sensitivity to docetaxel after PDE4D7 re-introduction, vs P1” value in assay [2] (docetaxel 10 μM) is “more sensitive to docetaxel treatment than P1”. Further, the “cleaved PARP ratio, P1 LNCaP” value in assay [4] (docetaxel 10 nM) is listed as “No increase in cleaved PARP ratio”. Further, in [5] (docetaxel 10 μM), the “growth of P1 cells” value is “no effect”. The “growth of PDE4D7-knockdown LNCaPs vs DMSO” value in [5] (docetaxel, all concentrations (5-25 μM) except 10 μM, slope 0-48 h) is on record as “significantly reduced growth”. The “PARP cleavage, WT LNCaP” value in [6] (docetaxel 10 nM) was “increased PARP cleavage”.

Take `COC(=O)Nc1nc2ccc(C(=O)c3ccccc3)cc2[nH]1` [mebendazole]: the “potential in advanced PCa treatment” value in assay [7] is recorded as “showed potential in advanced PCa treatment in combination with docetaxel”. In addition, the WT cell growth result in [1] (mebendazole 1-10 μM) was “significant downregulation of cell growth in a dose-dependent manner”. In assay [5] (mebendazole 1-10 μM, compared with WT), the “effect on P1 cells” value is “far more substantial and more significant, with initiation of immediate cell death in the cells at both concentrations; also recorded: PDE4D7-knockdown confers sensitivity to mebendazole in comparison to WT LNCaPs”.

Take `CCc1nc(-c2ccc(Cl)c(F)c2)nn1CC(=O)NCc1cc(Cl)cc(Cl)c1` [ML-R2]: the results for the “proliferation of WT LNCaPs” value in [1], in assay [1] (listed as MLR2) and in assay [1] (listed as MR-L2) were “no effect on proliferation in WT LNCaPs at either concentration”, “no effect on growth of WT LNCaPs” and “no effect on proliferation in WT LNCaPs”, respectively. In assay [2] (PDE4 activator, 10 μM), the “MLR2 sensitivity after PDE4D7 reintroduction to P1” value is listed as “rescues phenotype of WT LNCaPs on MLR2 sensitivity”. Further, the “growth of P1 cells” value in [5] (PDE4 activator, 1-10 μM) is “inhibition of cell growth in P1 cells”; in assay [5] (PDE4 activator, 1-10 μM, listed as MLR2), “attenuates growth of P1 LNCaPs”; in assay [5] (PDE4 activator, 1-10 μM, listed as MR-L2), “inhibition of growth in P1 cells”.

Take `CC#C[C@]1(O)CC[C@H]2[C@@H]3CCC4=CC(=O)CCC4=C3[C@@H](c3ccc(N(C)C)cc3)C[C@@]21C` [mifepristone]: the “growth of WT LNCaPs” value in [1] (mifepristone 30 μM) is “successfully inhibited growth”. Also, in assay [1] (mifepristone 0.3-10 μM), the “WT cell proliferation vs DMSO” value is given as “neither WT or P1 cell proliferation were reduced compared to DMSO”. In addition, the “proliferation of P1 LNCaPs” value in assay [5] (mifepristone 30 μM) is “significantly enhanced proliferation”. Further, the “growth curve over time, P1 LNCaPs” value in assay [5] (mifepristone 30 μM, compared to lower concentrations) is on record as “initial growth was inhibited compared to lower concentrations, however this effect eventually wore off”. Besides, the “P1 cell proliferation vs DMSO” value in assay [5] (mifepristone 0.3-10 μM) is listed as “neither WT or P1 cell proliferation were reduced compared to DMSO”.

As for `COc1ccc(C2CNC(=O)C2)cc1OC1CCCC1` (stereo not shown) [rolipram], in [8], the “FRET ratio / cAMP, membrane, WT” value was “downregulation of FRET ratio in the membrane compartment of WT LNCaPs, indicating an increase in cAMP concentration”. Further, the “FRET ratio, membrane, P1” value in [9] was “no obvious difference in FRET ratio”. The “FRET ratio, cytosol, WT” value in assay [10] was “no observable difference”. The “FRET ratio, cytosol, P1” value in assay [11] is given as “no observable difference”.

For `C[C@@H]1COCCN1c1cc(C2([S@](C)(=N)=O)CC2)nc(-c2cc[nH]c3nccc2-3)n1` [ceralasertib, Ceralasertib], in assay [1] (ceralasertib 10-30 μM), the “growth inhibition, WT” value is recorded as “most significant growth inhibition”. Also, the “growth inhibition independent of PDE4D7 expression, WT” value in assay [1] (summary statement, WT vs P1) is “reduce tumor growth independent of PDE4D7 expression levels; also recorded: inhibit LNCaP cell growth irrespective of PDE4D7 expression status”. Besides, in assay [12], the “synergistic effects in combination with olaparib” value is “enhance synergistic effects in combination with olaparib in mCRPC; also recorded: enhance synergistic effects in combination with olaparib in metastatic CRPC”. Also, the “sensitivity from growth curves, PDE4D7-knockdown (compared with WT)” value in assay [5] (ceralasertib 0-30 μM) is listed as “highly susceptible to ATR-inhibition via ceralasertib”. Further, in assay [5] (ceralasertib 10-30 μM), the “growth inhibition, P1” value was “most significant growth inhibition” and the “sensitivity of PDE4D7-knockdown cells” value is reported as “extremely sensitive to ATR inhibition via ceralasertib”. Moreover, in [5] (summary statement, WT vs P1), the “growth inhibition independent of PDE4D7 expression, P1” value is reported as “reduce tumor growth independent of PDE4D7 expression levels; also recorded: inhibit LNCaP cell growth irrespective of PDE4D7 expression status”.

(Values after patent US20260345624A1, “TREATMENT OF PROSTATE CANCER BY PROMOTING PDE4D7” (KONINKLIJKE PHILIPS N.V., priority 2022, published 2026).)
